Here are results for 2 compounds from article PMC6508677, “Identification of druggable small molecule antagonists of the Plasmodium falciparum hexose transporter PfHT and assessment of ligand access to the glucose permeation pathway via FLAG-mediated protein engineering” (PLoS ONE, 2019).

The target of the assay is T1, PfHT (Plasmodium falciparum, UniProt Q7KWJ5).
T1 sequence (Q7KWJ5 1-504): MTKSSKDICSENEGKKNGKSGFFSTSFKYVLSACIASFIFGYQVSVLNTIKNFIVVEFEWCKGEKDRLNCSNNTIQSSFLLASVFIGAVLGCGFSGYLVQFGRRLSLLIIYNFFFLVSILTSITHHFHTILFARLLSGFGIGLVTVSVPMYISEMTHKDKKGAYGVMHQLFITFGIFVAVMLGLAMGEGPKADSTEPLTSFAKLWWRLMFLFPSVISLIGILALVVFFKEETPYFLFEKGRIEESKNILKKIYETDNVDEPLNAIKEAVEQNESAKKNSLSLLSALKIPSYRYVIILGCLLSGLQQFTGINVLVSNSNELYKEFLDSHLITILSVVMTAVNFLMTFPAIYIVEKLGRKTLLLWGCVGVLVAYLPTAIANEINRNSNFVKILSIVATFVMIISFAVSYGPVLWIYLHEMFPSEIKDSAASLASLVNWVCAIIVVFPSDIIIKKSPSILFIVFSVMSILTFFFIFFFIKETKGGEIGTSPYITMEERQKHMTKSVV
Put plainly: 2-DG uptake by HEK293 cells overexpressing PfHT. It is filed as cell-based. Details: expressed in transfected cells; host or cells: HEK293 (HEK293-FLIP, native hGLUT1 knocked down by shRNA). The essentials:
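Stably transfected HEK293 lines (FRET glucose sensor; native hGLUT1 knocked down by shRNA; GLUT8 with E7R/E8R to keep it at the membrane) preincubated 30 min at 37°C with compound in glucose-free HBSS. Radiolabeled hexose uptake then run 2 min (D-fructose) or 4 min (2-DG) at 37°C, counted by scintillation, protein-normalized and expressed as % of vehicle.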

Where [1] appears, read: IC50 for inhibition of 2-DG uptake, HEK293 cells overexpressing PfHT, mean/reported value.

Where “and” joins values, the source holds several entries; their conditions need not be identical. Equal entries are not always repeated. Where two headings read alike, the source gives them in different places.

For `COc1cc(/C=N/NC(=O)c2cc(-c3ccccc3)sc2N)cc(OC)c1OC` [WU-3, 2-amino-5-phenyl-N'-[(E)-(3,4,5-trimethoxyphenyl)methylidene]thiophene-3-carbohydrazide], the remaining activity at 0.001 µM (HEK293, 4 min, read-out: 2-DG uptake (percent uptake relative to vehicle), AVE, PfHT, 0.001 µM compound) is 100%. In addition, the remaining activity at 0.3125 µM (HEK293, 4 min, read-out: 2-DG uptake (percent uptake relative to vehicle), AVE, PfHT, 0.3125 µM compound (0.313 in Fig 1 sheet for WU-1)) came to 109%. For the same compound, the remaining activity at 0.625 µM (HEK293, 4 min, read-out: 2-DG uptake (percent uptake relative to vehicle), AVE, PfHT, 0.625 µM compound) turned out to be 104%. Moreover, the remaining activity at 1.25 µM (HEK293, 4 min, read-out: 2-DG uptake (percent uptake relative to vehicle), AVE, PfHT, 1.25 µM compound) was determined as 103%. Moreover, the remaining activity at 2.5 µM (HEK293, 4 min, read-out: 2-DG uptake (percent uptake relative to vehicle), AVE, PfHT, 2.5 µM compound) was 104%. The remaining activity at 5 µM (HEK293, 4 min, read-out: 2-DG uptake (percent uptake relative to vehicle), AVE, PfHT, 5 µM compound) is 87.6%. The remaining activity at 10 µM (HEK293, 4 min, read-out: 2-DG uptake (percent uptake relative to vehicle), AVE, PfHT, 10 µM compound) was found to be 62%. Further, the remaining activity at 20 µM (HEK293, 4 min, read-out: 2-DG uptake (percent uptake relative to vehicle), AVE, PfHT, 20 µM compound) amounted to 42.7%. The remaining activity at 40 µM (HEK293, 4 min, read-out: 2-DG uptake (percent uptake relative to vehicle), AVE, PfHT, 40 µM compound) is 42.2%. The remaining activity at 80 µM (HEK293, 4 min, read-out: 2-DG uptake (percent uptake relative to vehicle), AVE, PfHT, 80 µM compound) came to 37.1%. Further, for the setting “HEK293, 4 min, read-out: 2-DG uptake (percent uptake relative to vehicle), AVE, PfHT, 160 µM compound”, the remaining activity at 160 µM worked out at 31.1%. The remaining activity at 225 µM (HEK293, 4 min, read-out: 2-DG uptake (percent uptake relative to vehicle), AVE, PfHT, 225 µM compound) amounted to 18.9%. Further, where the note is “HEK293, 4 min, read-out: % Inhibition of 2-DG uptake vs vehicle”, the inhibition at 10 µM was 51.8%. In addition, the half-maximal inhibitory concentration (IC50) under setting [1] was found to be 9.2 µM.

As for `C=C1[C@@H](C)[C@H]2[C@H](Cc3ccccc3)NC(=O)[C@]23OC(=O)/C=C/[C@H](O)CCC[C@@H](C)C/C=C/[C@H]3[C@@H]1O` [CB, cytochalasin B], the IC50 was 10.9 µM (AVE IC50 (µM), PfHT, 2-DG Uptake, average of Expt 1-3); 10.3 µM and 12.6 µM and 9.78 µM (IC50 (µM), PfHT, 2-DG Uptake, single experiments Expt 1-3); 10.9 ± 0.9 µM under setting [1]. For the same compound, the remaining activity at 0.001 µM (HEK293, 4 min, read-out: 2-DG Uptake AVE, PfHT, concentration 0.001 µM, Expt 1-3) is 100%. The remaining activity at 0.3906 µM (HEK293, 4 min, read-out: 2-DG Uptake AVE, PfHT, concentration 0.3906 µM) stood at 95.3%. Further, where the note is “HEK293, 4 min, read-out: 2-DG Uptake AVE, PfHT, concentration 0.7812 µM”, the remaining activity at 0.7812 µM was 96.2%. In addition, the remaining activity at 1.56 µM (HEK293, 4 min, read-out: 2-DG Uptake AVE, PfHT, concentration 1.56 µM) was found to be 90.6%. The remaining activity at 3.125 µM (HEK293, 4 min, read-out: 2-DG Uptake AVE, PfHT, concentration 3.125 µM) amounted to 71%. Besides, the remaining activity at 6.25 µM (HEK293, 4 min, read-out: 2-DG Uptake AVE, PfHT, concentration 6.25 µM) turned out to be 64.5%. Moreover, the remaining activity at 12.5 µM (HEK293, 4 min, read-out: 2-DG Uptake AVE, PfHT, concentration 12.5 µM) was 47.3%. Where the note is “HEK293, 4 min, read-out: 2-DG Uptake AVE, PfHT, concentration 25 µM”, the remaining activity at 25 µM was determined as 30.6%. Further, the remaining activity at 50 µM (HEK293, 4 min, read-out: 2-DG Uptake AVE, PfHT, concentration 50 µM) was 22.1%. In addition, the remaining activity at 100 µM (HEK293, 4 min, read-out: 2-DG Uptake AVE, PfHT, concentration 100 µM) is 12.7%. Moreover, the remaining activity at 200 µM (HEK293, 4 min, read-out: 2-DG Uptake AVE, PfHT, concentration 200 µM) turned out to be 7.58%. Besides, for the setting “HEK293, 4 min, read-out: 2-DG Uptake AVE, PfHT, concentration 400 µM”, the remaining activity at 400 µM was 4.31%.
